{"source": "ChEMBL document CHEMBL3638757", "about": "“Pyridazinones, method of making, and method of use thereof” (2015)", "molecular_target": "Tyrosine-protein kinase BTK (Homo sapiens, UniProt Q06187)", "sequence (Q06187 whole entry)": "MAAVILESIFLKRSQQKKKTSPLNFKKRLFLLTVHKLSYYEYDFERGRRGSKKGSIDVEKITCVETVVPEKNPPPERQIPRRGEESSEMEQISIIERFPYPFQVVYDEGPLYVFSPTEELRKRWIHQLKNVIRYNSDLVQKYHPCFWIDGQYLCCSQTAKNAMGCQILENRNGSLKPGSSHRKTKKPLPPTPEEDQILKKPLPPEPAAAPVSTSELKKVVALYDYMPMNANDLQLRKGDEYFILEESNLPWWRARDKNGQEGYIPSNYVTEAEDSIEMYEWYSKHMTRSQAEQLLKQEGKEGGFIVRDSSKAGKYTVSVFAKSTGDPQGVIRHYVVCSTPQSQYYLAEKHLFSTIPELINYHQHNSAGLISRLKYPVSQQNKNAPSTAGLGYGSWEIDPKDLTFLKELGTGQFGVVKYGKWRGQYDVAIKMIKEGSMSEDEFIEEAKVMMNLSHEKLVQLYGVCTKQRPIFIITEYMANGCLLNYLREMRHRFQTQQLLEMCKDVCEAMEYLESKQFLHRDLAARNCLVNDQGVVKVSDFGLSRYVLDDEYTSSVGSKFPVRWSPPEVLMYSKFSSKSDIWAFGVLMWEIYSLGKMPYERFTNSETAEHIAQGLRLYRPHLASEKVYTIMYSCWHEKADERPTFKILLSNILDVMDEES", "assay": "Biochemical Assay: A generalized procedure for a standard biochemical Btk Kinase Assay that can be used to test Formula I compounds is as follows. A master mix minus Btk enzyme is prepared containing IX Cell Signaling kinase buffer (25 mM Tris-HCl, pH 7.5, 5 mM beta- glycerophosphate, 2 mM dithiothreitol, 0.1 mM Na3V04, 10 mM MgCl2), 0.5 ul Promega PTK Biotinylated peptide substrate 2, and 0.01% BSA. A master mix plus Btk enzyme is prepared containing IX Cell Signaling kinase buffer, 0.5 ul PTK Biotinylated peptide substrate 2, 0.01% BSA, and 100 ng/well (0.06 mU/well) Btk enzyme. Btk enzyme is prepared as follows: full length human wildtype Btk (accession number NM-000061) with a C-terminal V5 and 6x His tag was subcloned into pFastBac vector for making baculo virus carrying this epitope-tagged Btk. Generation of baculovirus is done based on Invitrogen's instructions detailed in its published protocol \"Bac-to-Bac Baculovirus Expression Systems\"."}
{"smiles": "Cc1cc(Nc2cc(-c3ccc(F)c(N4Cc5cc(C(C)(C)C)sc5C4=O)c3)n[nH]c2=O)nn1C", "values": [{"measurement": "IC50", "value": 9, "unit": "nM"}]}
